For 15 molecules, melting point and IC50 results are on record in article PMC3728144, “Synthesis, reactions and biological activity of some new bis-heterocyclic ring compounds containing sulphur atom” (Chemistry Central Journal, 2013).

Read-outs that look alike come from different tables or passages of the source. Where only a bound is given, the exact number is not on record here.

Data set [1] deals with PC3 cells (Prostrate Cancer). Kind of data set: Anticancer (cytotoxic) activity, MTT colorimetric assay. It is filed as cell-based. The conditions noted are these: compounds 1-30 μM, n = 3, read-out: Anticancer activity (PC-3 cell line) IC50 ± SEM. On the procedure:
(§1) Various In vitro assays were performed to the assessment of biological activity of newly synthesized compounds. Results were presented here as means ± standard error from triplicate (n = 3) observation. IC50 values were calculated by using EZ-FIT, Enzyme kinetics software by Perrella Scientific.
Cytotoxic activity of compounds was evaluated in 96-well flat-bottomed microplates by using the standard MTT (3-[4, 5-dimethylthiazole-2-yl]-2, 5-diphenyl-tetrazolium bromide, MP) colorimetric assay. For this purpose, PC3 cells (Prostrate Cancer) were cultured in Dulbecco’s Modified Eagle Medium, supplemented with 10% of fetal bovine serum (FBS, PAA), 100 IU/mL of penicillin and 100 μ g/mL of streptomycin in 75 cm^2 flasks, and kept in 5% CO2 incubator at 37°C. Exponentially growing cells were harvested, counted with haemocytometer and diluted with a particular medium with 5% FBS. Cell culture with the concentration of 1x10^5 cells/mL was prepared and introduced (100 μL/well) into 96-well plates. After overnight incubation, medium was removed and 200 μL of fresh medium was added with different concentrations of compounds (1-30 μM). Stock solution, 20 mM of compounds were prepared in 100% DMSO and final concentration of DMSO at 30 μM is 0.15% .After 48 hrs, 200 μL MTT (0.5 mg/mL) was added to each well and incubated further for 4 hrs. Subsequently, 100 μL of DMSO was added to each well. The extent of MTT reduction to formazan within cells was calculated by measuring the absorbance at 570 nm, using a micro plate reader (Spectra Max plus, Molecular Devices, CA, USA). The cytotoxicity was recorded as concentration causing 50% growth inhibition (IC50) for PC3 cells. The percent inhibition was calculated by using the following formula:
% inhibition = 100-((mean of O.D of test compound – mean of O.D of negative control)/ (mean of O.D of positive control – mean of O.D of negative control)*100).
The results (% inhibition) were processed by using Soft- Max Pro software (Molecular Device, USA).

Data set [2] deals with T1, β-Glucuronidase (Escherichia coli, UniProt P05804).
T1 construct: purchased Sigma Aldrich G7396-25KU
T1 sequence (P05804 whole entry): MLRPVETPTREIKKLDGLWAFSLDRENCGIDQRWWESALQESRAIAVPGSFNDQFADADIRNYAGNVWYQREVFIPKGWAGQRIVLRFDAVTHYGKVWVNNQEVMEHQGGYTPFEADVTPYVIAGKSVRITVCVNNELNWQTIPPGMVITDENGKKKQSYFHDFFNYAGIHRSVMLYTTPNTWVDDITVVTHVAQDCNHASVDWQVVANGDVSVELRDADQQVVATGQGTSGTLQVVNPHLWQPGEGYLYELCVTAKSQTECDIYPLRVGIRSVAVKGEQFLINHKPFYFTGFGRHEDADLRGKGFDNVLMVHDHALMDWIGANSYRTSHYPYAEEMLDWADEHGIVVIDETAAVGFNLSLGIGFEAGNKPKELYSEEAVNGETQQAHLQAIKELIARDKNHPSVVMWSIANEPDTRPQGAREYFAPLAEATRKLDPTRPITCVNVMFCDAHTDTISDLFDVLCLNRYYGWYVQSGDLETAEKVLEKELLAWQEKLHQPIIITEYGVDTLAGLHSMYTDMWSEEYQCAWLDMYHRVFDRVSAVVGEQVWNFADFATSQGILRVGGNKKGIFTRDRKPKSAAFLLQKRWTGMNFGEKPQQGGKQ
Put plainly: In vitro β-glucuronidase inhibition assay. It is filed as biochemical. The conditions noted are these: p-nitrophenyl-β-D-glucuronide substrate, 37°C, 405 nm; NA = not active, failed to show 50% or more inhibition at 500 μM or more; read-out: ß-Glucuronidase inhibition IC50 ± SEM. The protocol: as §1
β-Glucuronidase inhibitory activity was determined by the spectrophotometric method by measuring the absorbance at 405 nm of p-nitrophenol formed from the substrate (p-nitrophenyl-β-D-glucuronide N1627-250 mg (Sigma Aldrich). The total reaction volume was 250 μL. The compound (5 μL) was dissolved in DMSO (100%), which becomes 2% in the ultimate assay (250 μL) and the similar conditions were used for standard (D-saccharic acid 1, 4-lactone, Sigma Aldrich). The reaction mixture contained 185 μL of 0.1 M acetate buffer, 5 μL of test compound solution, 10 μL of (1U) enzyme solution (G7396-25KU, Sigma Aldrich) was incubated at 37°C for 30 min. The plates were read on a multiplate reader (SpectraMax plus 384) at 405 nm after the addition of 50 μL of 0.4 mM p-nitrophenyl-β-D-glucuronide. All assays were performed in triplicate. IC50 Values were calculated by using EZ-Fit software (Perrella Scientific Inc., Amherst, MA, U.S.A.). These values are the mean of three independent readings.

Data set [3] is described as follows: DPPH radical scavenging antioxidant assay. Conditions: DPPH 300 μM, half an hour at 37°C, 515 nm, NA = not active, failed to show 50% or more inhibition at 500 μM or more, read-out: DPPH radical scavenging assay IC50 ± SEM. The protocol:
as §1
Test samples were allowed to react with stable free radical, 1, 1-diphenyl-2-picrylhydrazyl radical (DPPH, Wako Chemicals USA, Inc.)) for half an hour at 37°C. Various concentrations of test samples (prepared in DMSO) were incubated with DPPH (300 μM; prepared in ethanol). After incubation, decrease in absorption was measured at 515 nm using a microplate reader (SpectraMax plus 384). Percentage radical scavenging activity (% RSA) by samples was determined, in comparison with a DMSO- treated control group.% Radical scavenging activity was calculated by using the formula given in statistical analysis section.

By melting point is commonly meant the temperature, or range, at which the solid turns liquid. Molecule `COc1ccc(C=C(C#N)c2nc(-c3sc4sc(-c5csc(C(C#N)=Cc6ccc(OC)cc6)n5)c(-c5ccccc5)c4c3C)cs2)cc1` [Compound 4c, 2-(4-(5-(2-(1-Cyano-2-(4-methoxyphenyl)vinyl)thiazol-4-yl)-3-methyl-4-phenylthieno[2,3-b]thiophen-2-yl)thiazol-2-yl)-3-(4-methoxyphenyl)acrylonitrile] had a melting point of 238 to 239 °C.
One may read the IC50 as the point on the concentration scale where inhibition reaches its midpoint. The molecule `Cc1c(C(=O)CNc2ccccc2)sc2sc(C(=O)CNc3ccccc3)c(-c3ccccc3)c12` [Compound 9a, 1,1'-(3-Methyl-4-phenylthieno[2,3-b]thiophene-2,5-diyl)bis(2-(phenylamino)ethanone)] registered a melting point of more than 320 °C. The IC50 in data set [1] (Homo sapiens, PC-3, 48 h) was more than 30 µM.
For `O=C(O)[C@@H](O)[C@H]1OC(=O)[C@H](O)[C@H]1O` [D-Saccharic acid 1,4-lactone, reference compound], the IC50 in data set [2] was found to be 45.8 µM.
For the molecule `COc1cccc2c1C(=O)c1c(O)c3c(c(O)c1C2=O)C[C@@](O)(C(=O)CO)C[C@@H]3O[C@H]1C[C@H](N)[C@H](O)[C@H](C)O1` [Doxorubicin, reference compound], the IC50 came out at 0.91 µM in data set [1] (48 hrs) and 0.912 ± 0.12 µM in data set [1] (Homo sapiens, PC-3, 48 h).
Regarding `Cc1c(-c2coc(N)n2)sc2sc(-c3coc(N)n3)c(-c3ccccc3)c12` [Compound 8a, 4,4'-(3-Methyl-4-phenylthieno[2,3-b]thiophene-2,5-diyl)dioxazol-2-amine], the melting point was more than 320 °C. Besides, the IC50 in data set [1] (Homo sapiens, PC-3, 48 h) is more than 30 µM. For the same molecule, the IC50 in data set [2] is 1.2 ± 0.0785 µM.
`Cc1c(-c2cn3[nH]cnc3n2)sc2sc(-c3cn4[nH]cnc4n3)c(-c3ccccc3)c12` [Compound 7, 5,5'-(3-Methyl-4-phenylthieno[2,3-b]thiophene-2,5-diyl)bis(1H-imidazo[1,2-b] [1,2, 4]triazole)]: the melting point was more than 320 °C.
The molecule `Cc1c(-c2c[nH]c(N)n2)sc2sc(-c3c[nH]c(N)n3)c(-c3ccccc3)c12` [Compound 8c, 4,4'-(3-Methyl-4-phenylthieno[2,3-b]thiophene-2,5-diyl)bis(1H-imidazol-2-amine)] displayed a melting point of more than 320 °C.
`Cc1c(-c2csc(N)n2)sc2sc(-c3csc(N)n3)c(-c3ccccc3)c12` [Compound 8b, 4,4'-(3-Methyl-4-phenylthieno[2,3-b]thiophene-2,5-diyl)dithiazol-2-amine] yielded a melting point of 260 to 261 °C. Also, the IC50 in data set [1] (Homo sapiens, PC-3, 48 h) turned out to be 24.2 ± 0.29 µM.
As to `Cc1c(-c2csc(CC#N)n2)sc2sc(-c3csc(CC#N)n3)c(-c3ccccc3)c12` [Compound 3, 2,2'-(4,4'-(3-Methyl-4-phenylthieno[2,3-b]thiophene-2,5-diyl)bis(thiazole-4,2-diyl)) diacetonitrile], the melting point was more than 320 °C. For the same molecule, the IC50 in data set [1] (Homo sapiens, PC-3, 48 h) is more than 30 µM.
Take `Cc1c(-c2cn3c(nc4ccccc43)[nH]2)sc2sc(-c3cn4c(nc5ccccc54)[nH]3)c(-c3ccccc3)c12` [Compound 6, 5,5'-(3-Methyl-4-phenylthieno[2,3-b]thiophene-2,5-diyl)bis(1H-imidazo[1,2a]benzimidazole)]: the melting point was more than 320 °C.
`Cc1c(-c2csc(C(C#N)=Cc3ccc(Cl)cc3)n2)sc2sc(-c3csc(C(C#N)=Cc4ccc(Cl)cc4)n3)c(-c3ccccc3)c12` [Compound 4b, 3-(4-Chlorophenyl)-2-(4-(5-(2-(2-(4-chlorophenyl)-1-cyanovinyl)thiazol-4-yl)-3-methyl-4-phenylthieno[2,3-b]thiophen-2-yl)thiazol-2-yl)acrylonitrile] returned a melting point of 167 to 168 °C. The IC50 in data set [1] (Homo sapiens, PC-3, 48 h) is more than 30 µM.
With `Cc1c(-c2csc(C(C#N)=Cc3ccccc3)n2)sc2sc(-c3csc(C(C#N)=Cc4ccccc4)n3)c(-c3ccccc3)c12` [Compound 4a, 2-(4-(5-(2-(1-Cyano-2-phenylvinyl)thiazol-4-yl)-3-methyl-4-phenylthieno[2,3-b]thiophen-2-yl)thiazol-2-yl)-3-phenylacrylonitrile], the melting point was 220 to 221 °C. For the same molecule, the IC50 in data set [1] (Homo sapiens, PC-3, 48 h) was more than 30 µM.
Consider `Cc1c(C2=C(C#N)C=NC2)sc2sc(C3=C(C#N)C=NC3)c(-c3ccccc3)c12` [Compound 5, 3-(5-(4-Cyano-2H-pyrrol-3-yl)-3-methyl-4-phenylthieno[2,3-b]thiophen-2-yl)-2H-pyrrole-4-carbonitrile], for which the melting point is more than 320 °C. Besides, the IC50 in data set [1] (Homo sapiens, PC-3, 48 h) was more than 30 µM. Moreover, the IC50 in data set [2] came out at 0.13 ± 0.019 µM.
For `CC(=O)N[C@@H](CS)C(=O)O` [N-Acetylcysteine], the figures for the IC50 in data set [3] (listed as N-acetylcystein) and in data set [3] were 106 ± 1.1 µM and 106 µM, respectively.
Regarding `Cc1c(C(=O)CNc2ccc(Cl)cc2)sc2sc(C(=O)CNc3ccc(Cl)cc3)c(-c3ccccc3)c12` [Compound 9b, 1,1'-(3-Methyl-4-phenylthieno[2,3-b]thiophene-2,5-diyl)bis(2-(4-chlorophenylamino)ethanone)], the melting point was more than 320 °C. In addition, the IC50 in data set [1] (Homo sapiens, PC-3, 48 h) was more than 30 µM.
